Type in all cases: physicochemical
Series [1] is described as follows: Saturation solubility in water (HPLC). Conditions: for Saturation solubility: in water, room temperature, stirred for 12 hours, excess solid, HPLC; for solubility, in words: saturation solubility, forms C and D compared with crystal form A. The source says:
Samples for test: a crystal form C and a crystal form D of a compound of a formula (I), their preparation methods being respectively shown in Example 1 and Example 2, a preparation method of the crystal form A of the compound of the formula (I) being shown in Comparative example 1.
Test method: the crystal form A, the crystal form C, and the crystal form D of the compound of the formula (I) were respectively taken, to measure their saturation solubility in water, a specific method was: a suitable amount of the samples for test were respectively taken, and put into a […] sample bottle, 3 ml of a water solution was added, the solid was excess, and the obtained solution was placed at room temperature and stirred for 12 hours, and solubility in water was measured by using an HPLC method. The operation conditions of HPLC are as follows:
instrument: high performance liquid chromatograph (model: Thermo U3000)
chromatographic column: Agilent C18 column (5 μm, 150 mm×4.6 mm)
mobile phase composition and gradient elution program: […]
Detection wavelength: 254.4 nm;
column temperature: 30° C.

The nature of series [2]: Hygroscopicity test, dynamic vapor sorption (DVS). The note with it: for hygroscopicity, in words: forms C and D compared with crystal form A.
Series [3] is described as follows: Stability test (illumination, high temperature, high humidity; XRPD and HPLC purity). Conditions: for Initial purity (day 0): day 0, before stress, HPLC; for crystal transformation (XRPD): 10 days. Here is the method: Illumination stability: samples of the crystal form C and the crystal form D of the compound of the formula (I) (respectively prepared in Example 1 and Example 2) were respectively taken and placed at 25° C. under an illumination condition of 4500 Lux for 10 days, and samples were taken respectively on day 5 and day 10 at fixed time points to determine XRPD patterns of the crystal forms C and D and the content of N-(4-(1-(2,6-difluorobenzyl)-5-((dimethylamino)methyl)-3-(6-methoxy-3-pyridazinyl)-2,4-dioxo-1,2,3,4-tetrahydrothieno[2,3-d]pyrimidin-6-yl)phenyl)-N′-methoxyurea in the crystal forms C and D, which were compared with those of the samples on day 0. High temperature stability: samples of the crystal form C and the crystal form D of the compound of the formula (I) (respectively prepared in Example 1 and Example 2) were respectively taken and placed at 60° C. for 10 days, and samples were taken respectively on day 5 and day 10 at fixed time points to determine XRPD patterns of the crystal forms C and D and the content of N-(4-(1-(2,6-difluorobenzyl)-5-((dimethylamino)methyl)-3-(6-methoxy-3-pyridazinyl)-2,4-dioxo-1,2,3,4-tetrahydrothieno[2,3-d]pyrimidin-6-yl)phenyl)-N′-methoxyurea in the crystal form C and the crystal form D, which were compared with those of the samples on day 0. High humidity stability: samples of the crystal form C and the crystal form D of the compound of the formula (I) (respectively prepared in Example 1 and Example 2) were respectively taken and placed at 40° C. at 75% RH for 10 days, and samples were taken respectively on day 5 and day 10 at fixed time points to determine XRPD patterns of the crystal forms C and D and the content of N-(4-(1-(2,6-difluorobenzyl)-5-((dimethylamino)methyl)-3-(6-methoxy-3-pyridazinyl)-2,4-dioxo-1,2,3,4-tetrahydrothieno[2,3-d]pyrimidin-6-yl)phenyl)-N′-methoxyurea in the crystal form C and the crystal form D, which were compared with those of the samples on day 0. A specific stability test method can refer to the method in appendix XI C of Part II of Chinese Pharmacopoeia (2015 edition); the purity detection adopts an HPLC method, and the purity can be determined by an external standard method with reference to the method in appendix VD of Chinese Pharmacopoeia (2015 edition) by using the samples on day 0 as a reference substance. instrument: high performance liquid chromatograph (model: Thermo U3000) chromatographic column: Agilent C18 column (5 μm, 150 mm×4.6 mm) mobile phase composition and gradient elution program: [table] detection wavelength: 254.4 nm; flow rate: 1 ml/min; sample size:15 μL; column temperature: 30° C.

Test in series [4]: as above
The note with it: high humidity (25° C., 92.5% RH), 10 days.

[5] abbreviates: 25° C., 4500 Lux (illumination), listed as crystal form C.
Setting [6] is: 40° C., 75% RH (high humidity), listed as crystal form C.
The mark [7] stands for this setting: 60° C. (high temperature), listed as crystal form C.
The mark [8] stands for this setting: 25° C., 4500 Lux (illumination), listed as crystal form D.
The mark [9] stands for this setting: 40° C., 75% RH (high humidity), listed as crystal form D.
Where [10] appears, read: 60° C. (high temperature), listed as crystal form D.

Regarding `CONC(=O)Nc1ccc(-c2sc3c(c2CN(C)C)c(=O)n(-c2ccc(OC)nn2)c(=O)n3Cc2c(F)cccc2F)cc1` [Crystal form A, N-(4-(1-(2,6-difluorobenzyl)-5-((dimethylamino)methyl)-3-(6-methoxy-3-pyridazinyl)-2,4-dioxo-1,2,3,4-tetrahydrothieno[2,3-d]pyrimidin-6-yl)phenyl)-N′-methoxyurea], the Saturation solubility in series [1] stood at 28.50 µg/mL. Moreover, the “solubility, in words” value in series [1] (listed as crystal form A) is on record as “low solubility”. In addition, the “moisture absorption (hygroscopy gain)” value in series [2] (25° C., humidity gradually increased from 0 to 50% RH) is listed as 0.57%. Further, in series [2] (25° C., humidity gradually increased from 0 to 90% RH), the “hygroscopicity (hygroscopy gain)” value worked out at 25.84%. The “hygroscopicity, in words” value in series [2] (listed as crystal form A) was “high hygroscopicity”.
`CONC(=O)Nc1ccc(-c2sc3c(c2CN(C)C)c(=O)n(-c2ccc(OC)nn2)c(=O)n3Cc2c(F)cccc2F)cc1` [Crystal form C, N-(4-(1-(2,6-difluorobenzyl)-5-((dimethylamino)methyl)-3-(6-methoxy-3-pyridazinyl)-2,4-dioxo-1,2,3,4-tetrahydrothieno[2,3-d]pyrimidin-6-yl)phenyl)-N′-methoxyurea] showed a Saturation solubility in series [1] (listed as crystal form C) of 101.75 µg/mL. The “solubility, in words” value in series [1] (listed as crystal form C) is “significantly improved”. In addition, the “Purity change on day 10” value in series [3] (setting [5]) is 0.49%; in series [3] (setting [6]), 3.33%; in series [3] (setting [7]), 2.58%. For the same compound, the figures for the “Purity on day 5” value in series [3] (setting [5]), in series [3] (setting [6]) and in series [3] (setting [7]) were 98.99%, 96.88% and 97.89%, respectively. The “Purity on day 10” value in series [3] (setting [5]) is listed as 98.84%; in series [3] (setting [6]) it was 96%; in series [3] (setting [7]) it was 96.75%. For the same compound, in series [3] (listed as crystal form C), the “Initial purity (day 0)” value is listed as 99.33%. Besides, the “crystal transformation (XRPD)” value in series [3] (high temperature (60° C.)) is given as “no crystal transformation”; in series [3] (strong illumination (25° C., 4500 Lux)), “no crystal transformation”; in series [4] it was “no crystal transformation”. In addition, the “hygroscopicity, in words” value in series [2] (listed as crystal form C) is on record as “significantly decreased”.
As for `CONC(=O)Nc1ccc(-c2sc3c(c2CN(C)C)c(=O)n(-c2ccc(OC)nn2)c(=O)n3Cc2c(F)cccc2F)cc1` [Crystal form D, N-(4-(1-(2,6-difluorobenzyl)-5-((dimethylamino)methyl)-3-(6-methoxy-3-pyridazinyl)-2,4-dioxo-1,2,3,4-tetrahydrothieno[2,3-d]pyrimidin-6-yl)phenyl)-N′-methoxyurea], in series [1] (listed as crystal form D), the Saturation solubility was found to be 87.21 µg/mL and the “solubility, in words” value was “significantly improved”. Further, in series [3] (setting [8]), the “Purity change on day 10” value was 0.50%, the “Purity on day 5” value is given as 98.1% and the “Purity on day 10” value is 98.57%. Further, in series [3] (setting [9]), the “Purity change on day 10” value worked out at 1.86%, the “Purity on day 5” value was 97.88% and the “Purity on day 10” value is recorded as 97.21%. Moreover, in series [3] (setting [10]), the “Purity change on day 10” value turned out to be 2.56%, the “Purity on day 5” value is given as 96.25% and the “Purity on day 10” value is recorded as 96.51%. Also, the “Initial purity (day 0)” value in series [3] (listed as crystal form D) was determined as 99.07%. Also, the “hygroscopicity, in words” value in series [2] (listed as crystal form D) is on record as “significantly decreased”.

The record behind these values is patent US12497409B2, “Crystal form of gonadotropin releasing hormone antagonist, preparation method therefor, and use thereof” (Shenzhen Rentai Pharmatech Ltd., priority 2019, dated 2025).
